# Reference: patent publication US8163929B2, “Dihydropyridone amides as P2X7 modulators” (Roche Palo Alto LLC, priority 2008, dated 2012)
# Target: T1, P2X7 (UniProt Q99572)
# T1 sequence (Q99572 1-595): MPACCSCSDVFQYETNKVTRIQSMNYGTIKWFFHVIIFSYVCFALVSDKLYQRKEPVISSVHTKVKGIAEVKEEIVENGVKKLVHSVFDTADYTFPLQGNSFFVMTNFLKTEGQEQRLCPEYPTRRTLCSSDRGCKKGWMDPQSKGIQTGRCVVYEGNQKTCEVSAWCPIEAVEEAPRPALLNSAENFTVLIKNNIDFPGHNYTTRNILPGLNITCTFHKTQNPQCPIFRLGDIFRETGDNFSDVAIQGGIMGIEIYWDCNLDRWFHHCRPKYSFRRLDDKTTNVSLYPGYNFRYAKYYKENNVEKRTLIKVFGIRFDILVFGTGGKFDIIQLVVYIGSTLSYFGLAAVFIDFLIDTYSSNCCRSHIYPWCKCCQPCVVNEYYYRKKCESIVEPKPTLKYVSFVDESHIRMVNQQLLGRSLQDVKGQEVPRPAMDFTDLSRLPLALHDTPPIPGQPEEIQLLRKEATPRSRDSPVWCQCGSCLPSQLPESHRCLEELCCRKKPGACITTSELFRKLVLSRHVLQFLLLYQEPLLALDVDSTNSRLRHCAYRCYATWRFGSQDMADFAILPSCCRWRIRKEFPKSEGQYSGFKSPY
# Experiment: P2X7 activity of Table 1
# Assay type: cell-based
# Conditions: pIC50 values for P2X7
# How it was run: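 FLIPR calcium flux with fluo-3 in 1321N1 cells expressing human P2X7 and HEK293 cells expressing rat P2X7, in HBSS with 2 mM CaCl2 and 2.5 mM probenecid. Antagonist pre-incubated 20 min at room temperature, then BzATP added (100 μM human, 5 μM rat). Peak response over 5 min normalised to 5 μM ionomycin.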
smiles,measurement,value
"Cc1cc(F)c(-c2cccn(C)c2=O)cc1NC(=O)C1=CN(C)C(=O)C[C@H]1c1ccc(F)cc1 [Compound 139, (S)-4-(4-Fluoro-phenyl)-1-methyl-6-oxo-1,4,5,6-tetrahydro-pyridine-3-carboxylic acid [4-fluoro-2-methyl-5-(1-methyl-2-oxo-1,2-dihydro-pyridin-3-yl)-phenyl]-amide]",pIC50,7.83
"Cc1ccc(=O)n(-c2ccc(C)c(NC(=O)C3=CN(C)C(=O)C[C@H]3c3ccc(F)cc3)c2)c1 [Compound 140, (S)-4-(4-Fluoro-phenyl)-1-methyl-6-oxo-1,4,5,6-tetrahydro-pyridine-3-carboxylic acid [2-methyl-5-(5-methyl-2-oxo-2H-pyridin-1-yl)-phenyl]-amide]",pIC50,7.18
"CN1C=C(C(=O)Nc2cc(-c3ccnn(C)c3=O)ccc2F)[C@H](c2ccc(F)cc2)CC1=O [Compound 141, (S)-4-(4-Fluoro-phenyl)-1-methyl-6-oxo-1,4,5,6-tetrahydro-pyridine-3-carboxylic acid [2-fluoro-5-(2-methyl-3-oxo-2,3-dihydro-pyridazin-4-yl)-phenyl]-amide]",pIC50,7.36
"Cn1nccc(-c2ccc(F)c(NC(=O)C3=CNC(=O)C[C@H]3c3ccc(F)cc3)c2)c1=O [Compound 142, (S)-4-(4-Fluoro-phenyl)-6-oxo-1,4,5,6-tetrahydro-pyridine-3-carboxylic acid [2-fluoro-5-(2-methyl-3-oxo-2,3-dihydro-pyridazin-4-yl)-phenyl]-amide]",pIC50,8.2
"Cc1cnn(-c2cc(NC(=O)C3=CNC(=O)C[C@H]3c3ccc(F)cc3)c(C)cc2F)c(=O)c1 [Compound 143, (S)-4-(4-Fluoro-phenyl)-6-oxo-1,4,5,6-tetrahydro-pyridine-3-carboxylic acid [4-fluoro-2-methyl-5-(4-methyl-6-oxo-6H-pyridazin-1-yl)-phenyl]-amide]",pIC50,7.455
"Cc1cnn(-c2cc(NC(=O)C3=CN(C)C(=O)C[C@H]3c3ccc(F)cc3)c(C)cc2F)c(=O)c1 [Compound 145, (S)-4-(4-Fluoro-phenyl)-1-methyl-6-oxo-1,4,5,6-tetrahydro-pyridine-3-carboxylic acid [4-fluoro-2-methyl-5-(4-methyl-6-oxo-6H-pyridazin-1-yl)-phenyl]-amide]",pIC50,7.265
"CN1C=C(C(=O)Nc2cc(-n3ncccc3=O)ccc2F)[C@H](c2ccc(F)cc2)CC1=O [Compound 146, (S)-4-(4-Fluoro-phenyl)-1-methyl-6-oxo-1,4,5,6-tetrahydro-pyridine-3-carboxylic acid [2-fluoro-5-(6-oxo-6H-pyridazin-1-yl)-phenyl]-amide]",pIC50,5.74
"Cc1cc(F)c(-c2cc(C)n(CCO)n2)cc1NC(=O)C1=CN(C)C(=O)C[C@H]1c1ccc(F)cc1 [Compound 148, (S)-4-(4-Fluoro-phenyl)-1-methyl-6-oxo-1,4,5,6-tetrahydro-pyridine-3-carboxylic acid {4-fluoro-5-[1-(2-hydroxy-ethyl)-5-methyl-1H-pyrazol-3-yl]-2-methyl-phenyl}-amide]",pIC50,7.41
